Measured values published in US11701363B2, “Methods for treating viral disorders” (TRUSTEES OF BOSTON UNIVERSITY, priority 2009, dated 2023).
Where two headings read alike, the source gives them in different places.

How the values were obtained:
HIV-1 = details: OD converted to pg of protein; compared with vehicle alone
Protocol: Virus production (p24 release) was examined in an HIV-1-infected monocyte line. Cells were treated or not treated with HDAC-inhibitors and other compounds. P24 release expressed as optical density (“OD”) (FIG. 13), and then converted to pg of protein (FIG. 14). […] DMSO was vehicle for some of the compounds tested.

viral thymidine kinase = test: Expression of viral thymidine kinase in EBV-infected lymphocytes; type: cell-based
From the text: Three such examples are as follows. First, many of the RNA viruses such as HIV and other retroviruses require a reverse transcriptase to transcribe their genome into DNA. A few of the agents that induce expression or activity of retroviruses and their encoded genes, such as, for example, reverse transcriptase, are known to those of ordinary skill in the art. Anti-viral agents such as nucleoside analogs can be administered to the patient. Those substrate analogs will be specifically recognized by the reverse transcriptase that, when incorporated into the infected-cell genome, prevent viral replication and may also result in cell death. Second, many viruses require an active protease to assemble virus capsids to be packaged with viral genome. Protease inhibitors or proteases that alter cleavage patterns so that packaging cannot occur can be specifically targeted with an anti-viral agent that comprises an amino acid analog or toxic conjugate. […] Ganciclovir or famcyclovir, in the presence of the viral thymidine kinase or other viral kinases, destroys the infected cell. Treatment of infected cells with both agents, according to the invention, will selectively destroy EBV virus-infected cells. In another aspect, of infected cells with both agents, according to the invention, will selectively disable or disrupt the viral activity within the cells in vivo.

EBV-TK = test: Induction of EBV-TK activity in EBV-immortalized B-cells and patient-derived tumor cells; type: cell-based, Epstein-Barr virus; details: preliminary in vitro studies
From the text: In some embodiments, inducing agents include arginine butyrate and/or other histone deacetylase inhibitors. […] TK expression can be used as a point for attack by anti-viral agents, allowing for treatment of latent infections.
Treatment of patients with viral-associated tumors such as EBV with inducing agents such as arginine butyrate, to induce the expression of EBV-TK, and GCV, to eliminate EBV-TK expressing tumor cells, is an effective, non-toxic therapy. […] Without wishing to be bound by theory, it is believed that just the presence of the EBV genome in latent form would make the tumor susceptible to this combination protocol.

P3HR1 cells = test: Viable cell counts of P3HR1 cells (toxicity assays and combination treatment with GCV)
Protocol: The EBV-positive B lymphoma cell line P3HR1 was used throughout these assays. The P3HR1 cell line was originally derived from Burkitt's lymphoma patient. EBV maintains a latent state of replication in this cell line. Cells were maintained in RPMI 1640 with 10% fetal bovine serum containing 100 U penicillin per ml and 100 μg streptomycin per ml. The HDAC inhibitors used were from five different classes: a) short chain fatty acids, b) hydroxamic acids, c) benzamides, d) cyclic tetrapeptides, and e) largazoles.
Toxicity assays with two anti-herpesvirus drugs, Gancicovir (GCV) and Penciclovir (PCV), treated to P3HR1 cells alone was conducted as a control. A total of 3×10^5 P3HR1 cells were incubated with various concentrations of GCV or PCV and incubated for 6 days. Viable cell counts were measured and toxicity was expressed as percentage of cell growth compared to untreated cells.

EBV TK = test: TK mRNA level by reverse transcription and real-time PCR in P3HR1 cells; type: cell-based, Epstein-Barr virus
Protocol: To measure the relative level of TK mRNA in various total RNA preparations, reverse transcription and quantitative PCR using real time PCR technology was used. Five micrograms of total RNA was reverse-transcribed using random hexamer primers and Superscript III cDNA synthesis kit (Invitrogen). The cDNA was diluted to a final volume of 60 μl with sterile water, 8 μl of which was then used in each real time PCR reaction in an ABI 7500 […] using SYBR-Green technology. Primers used for the amplification of TK were EBV-TK1-F: 5′-[…]-3′; EBV-TK1-R: 5′-[…]-3′. The ß-actin mRNA level in those samples were determined similarly using ß-actin-specific primers Actin/hu-F: 5′-[…]-3′; Actin/hu-R: 5′-[…]-3′. The relative level of TK expression in a sample was calculated following normalization of ß-actin expression level.

In the case of `Cc1[nH]c2ccccc2c1CCNCc1ccc(/C=C/C(=O)NO)cc1` [LHB589, panobinostat], the “virus production (p24 release)” value (HIV-1) is reported as “active”.
For arginine butyrate, the “expression of viral thymidine kinase and other viral protein kinases” value (viral thymidine kinase) was “enhance expression”, the EBV-TK activity (EBV-TK) was “induces EBV-TK activity” and the “virus production (p24 release)” value (HIV-1) was “active”.
With `Nc1nc2c(ncn2CCC(CO)CO)c(=O)[nH]1` [PCV, Penciclovir] the “toxicity to P3HR1 cells (percentage of cell growth compared to untreated cells)” value (P3HR1 cells) was “less toxic to the cells compared to GCV” and the “level of inhibition of cell growth at higher concentrations” value (P3HR1 cells; in combination with Na-butyrate, concentrations higher than 40 μM) was “did not change significantly”.
For Oxamflatin, the “reduction of cell growth in combination treatment with GCV” value (shortened to “reduction of cell growth … with GCV”) (P3HR1 cells) was “synergistic activity with GCV” and the “activity level (growth suppression) in combination with GCV” value (P3HR1 cells; 200 nM) was “more than what typically seen with 1.0 mM NaB”.
`Nc1ccccc1NC(=O)c1ccc(CNC(=O)OCc2cccnc2)cc1` [MS-275, 3-pyridinylmethyl [[4-[[(2-aminophenyl)amino]carbonyl]phenyl]methyl] carbamate] was tested, and the TK expression (EBV TK; 500 nM and higher concentrations) was “strongly induced TK expression”, the TK expression (EBV TK; 6 hr post treatment) was “induced” and the “sensitizing P3HR1 cells to GCV-mediated effects” value (P3HR1 cells; 500 nM) was “as efficient as 1.0 mM NaB”. For the same compound, the “sensitizing P3HR1 cells to GCV-mediated killing after short exposure” value (P3HR1 cells; 24 hr exposure to MS-275+GCV, then GCV for up to 6 days) was “sensitized the cells to GCV-mediated effects as efficiently as a 72 hr continuous treatment”.
`CC(/C=C/C(=O)NO)=C\[C@@H](C)C(=O)c1ccc(N(C)C)cc1` [TSA, trichostatin A] was tested, and the “virus production (p24 release)” value (HIV-1) was “active”.
With `CCC(Nc1ncnc2ccccc12)C(=O)O` (centres unmarked) [RB3] the “virus production (p24 release)” value (HIV-1) was “increased viral production at levels similar to the control of vehicle alone”.
In the case of `CCCCCCCCCCCCCC(=O)O[C@@H]1[C@@H](C)[C@@]2(O)[C@@H](C=C(CO)C[C@]3(O)C(=O)C(C)=C[C@@H]23)[C@@H]2C(C)(C)[C@]12OC(C)=O` [PMA, phorbol myristate acetate], the “virus production (p24 release)” value (HIV-1) is reported as “active”.
In the case of `O=C(/C=C/c1cccc(S(=O)(=O)Nc2ccccc2)c1)NO` [PXD101, Belinostat], the TK expression (EBV TK; 5 μM) is reported as “high level of TK expression”.
In the case of `CC(C)C(N)=O` [isobutyramide], the “expression of viral thymidine kinase and other viral protein kinases” value (viral thymidine kinase) is reported as “enhance expression”.
For `CCC(=O)CCCCC[C@@H]1NC(=O)[C@H]2CCCCN2C(=O)[C@H]([C@@H](C)CC)NC(=O)[C@H](Cc2cn(OC)c3ccccc23)NC1=O` [apicidin], the “virus production (p24 release)” value (HIV-1) was “active”, the “cell growth without any GCV” value (P3HR1 cells; 200 nM) was “significantly retarded” and the “toxicity to the cells” value (P3HR1 cells; 500 nM) was “very toxic to the cells”. For the same compound, the “toxicity to the cells” value (P3HR1 cells; apicidin alone, concentrations higher than 200 nM) was “quite toxic to the cells” and the “reduction of cell growth over cells treated with apicidin alone” value (P3HR1 cells; combination with GCV, 100 nM and 200 nM) was 40-50%.
With `CCCC(CCC)C(=O)O` [VA, valproic acid] the “TK expression (TK mRNA level)” value (EBV TK) was “less efficient than NaB” and the “reduction of cell growth … with GCV” value (P3HR1 cells) was “very similar activity”.
For `CCCCCCCC(=O)SCC/C=C/[C@@H]1CC(=O)NCc2nc(cs2)C2=N[C@@](C)(CS2)C(=O)N[C@@H](C(C)C)C(=O)O1` [largazole], the “virus production (p24 release)” value (HIV-1) was “active”.
In the case of `CCC(C)(C)C(=O)O` [ST20, 2,2-dimethyl butyrate], the “virus production (p24 release)” value (HIV-1) is reported as “increased viral production at levels similar to the control of vehicle alone”.
For `O=C(CCCCCN1C(=O)c2cccc3cccc(c23)C1=O)NO` [Scriptaid], the “reduction of cell growth … with GCV” value (P3HR1 cells; especially at 500 nM and 1 μM) was “strong synergistic effect with GCV”.
In the case of `CCCC(=O)[O-].[Na+]` [NaB, Na-butyrate], the “optimal concentration for combination treatment with GCV” value (P3HR1 cells) is reported as 1.0 mM, the “cell growth with inducing agent alone” value (P3HR1 cells; NaB alone at a concentration higher than 1.0 mM) is reported as “reduces cell growth to a significant degree” and the “synergistic effects of GCV” value (P3HR1 cells; NaB at concentrations higher than 1.0 mM) is reported as “lost”.
For `O=C(CCCCCCC(=O)Nc1ccccc1)NO` [SAHA, suberoyl anilide hydroxamic acid], the “TK expression (TK mRNA level)” value (EBV TK) was “higher level than that seen with efficient concentrations of butyrate (1.0 mM)” and the “reduction of cell growth … with GCV” value (P3HR1 cells) was “less effective in reducing cell growth when combined with an antiviral agent compared to butyrate”.
